PMC6114901, “An automated screening method for detecting compounds with goitrogenic activity using transgenic zebrafish embryos” (PLoS ONE, 2018)

Legend:
[1] = in vivo; details: zebrafish, in vivo
[2] = tested on: zebrafish embryos; experiment: in vivo; details: for LC10: S2 Fig, unit not given, in µM; for Slope: mortality concentration-response curve
[3] = ref chemspider (http://www.chemspider.com); cited from earlier work
[4] = 72 hpf, 77.18 µmol/L, replicate 2, 11 embryos
[5] = 72 hpf, 115.76 µmol/L, replicate 2, 9 embryos
[6] = 72 hpf, 173.64 µmol/L, replicate 2, 8 embryos
[7] = 72 hpf, 260.47 µmol/L, replicate 2, 10 embryos
[8] = 72 hpf, 390.70 µmol/L, replicate 2, 10 embryos
[9] = 120 hpf, 25 µmol/L, replicate 1, 25 embryos
[10] = 120 hpf, 50 µmol/L, replicate 1, 25 embryos
[11] = 120 hpf, 77.18 µmol/L, replicate 2, 11 embryos
[12] = 120 hpf, 100 µmol/L, replicate 1, 25 embryos
[13] = 120 hpf, 115.76 µmol/L, replicate 2, 9 embryos
[14] = 120 hpf, 173.64 µmol/L, replicate 2, 9 embryos
[15] = 120 hpf, 200 µmol/L, replicate 1, 25 embryos
[16] = 120 hpf, 260.47 µmol/L, replicate 2, 10 embryos
[17] = 120 hpf, 390.70 µmol/L, replicate 2, 10 embryos
[18] = 120 hpf, 400 µmol/L, replicate 1, 25 embryos
[19] = sheet DCA 96 hpf (head prints 72 hpf), 77.18 µmol/L, replicate 2, 10 embryos
[20] = sheet DCA 96 hpf (head prints 72 hpf), 115.76 µmol/L, replicate 2, 9 embryos
[21] = sheet DCA 96 hpf (head prints 72 hpf), 173.64 µmol/L, replicate 2, 8 embryos
[22] = sheet DCA 96 hpf (head prints 72 hpf), 260.47 µmol/L, replicate 2, 10 embryos
[23] = sheet DCA 96 hpf (head prints 72 hpf), 390.70 µmol/L, replicate 2, 10 embryos

Nc1ccc(Cl)c(Cl)c1 [3,4-DCA, 3,4-dichloroaniline]
14.1: LC10 ([2]; mortality after 72 h of exposure)
4: Sublethal effects mch [2, 5] | Sublethal effects mch [2, 6] | No hatched [2, 7] | Sublethal effects Total Sublethal [2, 7] | Sublethal effects tip [2, 7] | No Surviving [2, 10] | Sublethal effects mch [2, 11] | No hatched [2, 16] | No hatched [2, 17] | No hatched [2, 22] | Sublethal effects EdY / EdP [2, 22] | Sublethal effects Total Sublethal [2, 22] | Sublethal effects nobc [2, 22] | Sublethal effects nomov [2, 22] | Sublethal effects tip [2, 22] | No hatched [2, 23]
6: Lethal effects k/f [2, 13] | Sublethal effects EdY / EdP [2, 19] | Sublethal effects mch [2, 21]
1: Sublethal effects EdY / EdP [2, 7] | Sublethal effects mch [2, 13] | Sublethal effects Ydef [2, 14] | Sublethal effects mch [2, 14] | Sublethal effects Ydef [2, 21] | Lethal effects k/f [2, 23]
3: No hatched [2, 8] | Sublethal effects mch [2, 8] | Sublethal effects tip [2, 8] | Lethal effects k/f [2, 9] | No Surviving [2, 13] | Lethal effects k/f [2, 14] | Lethal effects nohb [2, 14] | No Surviving [2, 14] | Sublethal effects EdY / EdP [2, 14] | Sublethal effects nobc [2, 14] | Sublethal effects nomov [2, 14] | Sublethal effects tip [2, 14]
0: No Surviving [2, 12] | No Surviving [2, 15] | No Surviving [2, 16] | No Surviving [2, 17] | No Surviving [2, 18] | No Surviving [2, 23]
8: No Surviving [2, 6] | No hatched [2, 11] | Sublethal effects EdY / EdP [2, 11] | Sublethal effects Total Sublethal [2, 11] | Sublethal effects nobc [2, 11] | Sublethal effects nomov [2, 11] | Sublethal effects tip [2, 11] | No hatched [2, 13] | Lethal effects k/f [2, 17] | No hatched [2, 19] | Sublethal effects Total Sublethal [2, 19] | Sublethal effects tip [2, 19] | No hatched [2, 20] | Sublethal effects Total Sublethal [2, 20] | Sublethal effects tip [2, 20] | No Surviving [2, 21]
9: No hatched [2, 4] | Sublethal effects Total Sublethal [2, 4] | Sublethal effects tip [2, 4] | No Surviving [2, 5] | No hatched [2, 14] | No Surviving [2, 20] | Sublethal effects Total Sublethal [2, 21] | Sublethal effects nobc [2, 21] | Sublethal effects nomov [2, 21] | Sublethal effects tip [2, 21] | Lethal effects nohb [2, 23]
55.5: Slope ([2]; 48 h of exposure)
22: No Surviving [2, 9]
306: LC10 ([2]; mortality after 48 h of exposure)
11: No Surviving [2, 4] | No Surviving [2, 11]
59.4 µM: LC50 ([1]; LC50, mortality after 72 h of exposure, S2 Fig, unit inferred)
21: Lethal effects k/f [2, 10]
2: Sublethal effects mch [2, 7] | Sublethal effects EdY / EdP [2, 13] | Sublethal effects nobc [2, 13] | Sublethal effects nomov [2, 13] | Sublethal effects tip [2, 13] | Lethal effects nohb [2, 17] | Sublethal effects mch [2, 19] | Sublethal effects mch [2, 22]
29.4 µM: LC50 ([1]; LC50 (48–120 hpf), mortality, embryos exposed 48–120 hpf)
5: Lethal effects k/f [2, 16] | Lethal effects nohb [2, 16] | Sublethal effects mch [2, 20] | Sublethal effects nomov [2, 20]
2.6: Log D (pH 7.4) [3]
319 µM: LC50 ([1]; LC50, mortality after 48 h of exposure, S2 Fig, unit inferred)
10: No Surviving [2, 7] | No Surviving [2, 8] | Sublethal effects EdY / EdP [2, 8] | Sublethal effects Total Sublethal [2, 8] | No Surviving [2, 19] | No Surviving [2, 22]
7: No hatched [2, 5] | Sublethal effects Total Sublethal [2, 5] | Sublethal effects tip [2, 5] | No hatched [2, 6] | Sublethal effects Total Sublethal [2, 6] | Sublethal effects tip [2, 6]
25: Lethal effects k/f [2, 12] | Lethal effects k/f [2, 15] | Lethal effects k/f [2, 18]
1.53: Slope ([2]; 72 h of exposure)
